In patent US10781236B2, “Bacteriocin composition and method” (priority 2015, dated 2020):
Converted amounts (≈) assume the structure as drawn. Like-named read-outs stand apart in the source and are kept apart here. Where a SMILES comes first, the peptide text is derived from it.

Assays:
[1] = Tryptophan-to-alanine GarA variants, antibacterial activity; type: cell-based; conditions: in combination with the other peptides of Garvicin KS
Protocol: The three tryptophan residues in GarA were replaced one by one with alanine (Table 9). Antibacterial activity was tested when used in combination with the other peptides of Garvicin KS.

L. lactis IL1403 = type: cell-based, Lactococcus lactis
Protocol: The bacteriocin activity was assayed using a microtitre plate assay (Holo et al., 1991, supra). The plates were incubated at 30° C. for 8 h and the growth was measured spectrophotometrically at 600 nm (A600) with 15 min intervals using SPECTROstarNano (BMG LABTECH, Germany). The MIC was defined as the minimal bacteriocin concentration that inhibited the growth of the indicator strain by at least 50% (50% of the turbidity of the control culture without bacteriocin) in 200 μl culture. MIC is equal to one bacteriocin unit (BU).
All the peptides in the experiments were synthesized by Pepmic Co., LTD, China with 90-99% purity except for CerHA, CerHB and CerVC (85% purity). Aureocin A70F is almost identical to bacteriocin AureocinA70, both being made up of four peptides (peptide A, B, C and D) but in peptide D of Aureocin A70F leucine 29 is replaced with phenylalanine (EWU40578.1). Synthesized peptides were solubilized to a concentration of 0.1 to 10 mg/ml in 0.1% (vol/vol) trifluoroacetic acid and stored at −20° C. until use.
The three identified peptides termed GarKosA, GarKosB and GarKosC were chemically synthesized and tested for antimicrobial activity. The antimicrobial activity of the individual peptides was assessed against L. lactis IL1403 (Table 6).

Compound	MIC, single peptide (L. lactis IL1403; IL1403, 8 h) [µM]	other results
MGAIIKAGAKIVGKGVLGGGASWLGANVGEKIWK (Altered Sequence of GarA from Lactococcus garvieae with W26A Mutation) [GarA-26A]		antibacterial activity in words [1]: no antibacterial activity
CC[C@H](C)[C@H](NC(=O)[C@H](CCCNC(=N)N)NC(=O)[C@@H](NC(=O)CNC(=O)[C@H](C)NC(=O)[C@H](CCC(=O)O)NC(=O)[C@H](Cc1c[nH]c2ccccc12)NC(=O)CNC(=O)[C@H](CC(C)C)NC(=O)[C@H](Cc1c[nH]c2ccccc12)NC(=O)[C@H](CO)NC(=O)[C@H](C)NC(=O)[C@H](C)NC(=O)[C@@H](NC(=O)CNC(=O)CNC(=O)[C@@H](NC(=O)[C@@H](NC(=O)[C@H](CCCCN)NC(=O)[C@H](CC(C)C)NC(=O)CNC(=O)CNC(=O)[C@H](CCCCN)NC(=O)[C@@H](NC(=O)[C@@H](NC(=O)[C@H](C)NC(=O)CNC(=O)[C@@H](N)CCSC)C(C)C)C(C)C)[C@@H](C)CC)[C@@H](C)CC)[C@@H](C)O)[C@@H](C)O)C(=O)N[C@@H](Cc1c[nH]c2ccccc12)C(=O)N[C@@H](CCCCN)C(=O)O [CerV C] (H-MGAVVKGGLKIIGGTAASWLGWEAGTRIWK-OH; N-terminus and C-terminus assumed)	>6	
CC[C@H](C)[C@H](NC(=O)[C@H](C)NC(=O)CNC(=O)[C@@H](N)CCSC)C(=O)N[C@H](C(=O)N[C@@H](CCCCN)C(=O)N[C@@H](C)C(=O)NCC(=O)N[C@@H](C)C(=O)N[C@@H](CCCCN)C(=O)N[C@H](C(=O)N[C@H](C(=O)NCC(=O)N[C@@H](CCCCN)C(=O)NCC(=O)N[C@@H](C)C(=O)N[C@@H](CC(C)C)C(=O)N[C@H](C(=O)NCC(=O)NCC(=O)NCC(=O)N[C@H](C(=O)N[C@@H](Cc1c[nH]c2ccccc12)C(=O)N[C@@H](CC(C)C)C(=O)N[C@@H](C)C(=O)N[C@@H](CCC(=O)O)C(=O)N[C@@H](CCCCN)C(=O)N[C@@H](CC(C)C)C(=O)N[C@@H](Cc1ccccc1)C(=O)NCC(=O)NCC(=O)N[C@@H](CCCCN)C(=O)O)C(C)C)[C@@H](C)O)C(C)C)[C@@H](C)CC)[C@@H](C)CC [Kos C] (H-MGAIIKAGAKIVGKGALTGGGVWLAEKLFGGK-OH; N-terminus and C-terminus assumed)		MIC, single peptide (L. lactis IL1403; L. lactis IL1403, synthetic single peptide, >=50% growth inhibition): 6 µM (≈ 18.6 µg/mL)
CC[C@H](C)[C@H](NC(=O)[C@H](CCCCN)NC(=O)[C@H](CCCCN)NC(=O)[C@H](CC(C)C)NC(=O)CNC(=O)CNC(=O)[C@H](Cc1ccc(O)cc1)NC(=O)[C@@H](NC(=O)[C@H](C)NC(=O)CNC(=O)CNC(=O)[C@H](C)NC(=O)[C@@H](NC(=O)CNC(=O)CNC(=O)[C@H](C)NC(=O)[C@H](Cc1ccccc1)NC(=O)[C@H](C)NC(=O)[C@H](CCCCN)NC(=O)CNC(=O)[C@H](CC(C)C)NC(=O)[C@H](CCSC)NC(=O)[C@H](CCCCN)NC(=O)[C@@H](NC(=O)[C@H](C)NC(=O)[C@H](C)NC(=O)CNC(=O)[C@@H](N)CCSC)C(C)C)C(C)C)[C@@H](C)O)C(=O)N[C@@H](Cc1ccccc1)C(=O)NCC(=O)O [CerV B] (H-MGAAVKMLGKAFAGGVAGGATYGGLKKIFG-OH; N-terminus and C-terminus assumed)	>6	
